Test results published in a melting point compilation (Tetko et al.; mined from patent text by program, amines drawn as free bases though some values may be those of a salt).

melting point [°C]	SMILES
171 to 172	CN1CCC/C1=C\c1nc(-c2ccc(F)cc2)c(-c2ccncc2)n1CCCc1ccccc1
219 to 221	COc1ccc(S(=O)(=O)N2c3ccc(Br)cc3-c3ccccc3C2C)cc1C (centres undefined)
228 to 229	Cc1ccc2c(Sc3ccc(Cl)cc3)c(C(=O)O)[nH]c2c1
91 to 92	Cc1nc(Cc2ccc(N)cc2)sc1C
132 to 134	CCCOn1c(C)nc(N2CCc3ccccc3CC2)c(C#N)c1=O
162 to 170	CS(=O)(=O)NCCn1c(=O)[nH]c2ccccc21
45 to 48	CCNC(=O)c1ccccc1N(C)C(C)(C)C
165	O=C1NC(=O)C(Nc2ccc(CCNC[C@H](O)COc3ccc(O)cc3)cc2)S1 (some centres undefined)
> 250	Cc1ccc(N)c2c1CCC2=NNC(=N)N
107 to 108	Cn1nc(Cl)cc(Br)c1=O
112	COCCOc1ccc(/C=C/C(=O)O)c(OCC2CCCCC2)c1
204 to 208	O=C(O)COC1Cc2sc(S(=O)(=O)C(c3ccccc3F)c3ccccc3F)nc2-c2ccccc21 (centres undefined)
48 to 49	Cc1cc([N+](=O)[O-])c(C)nc1OC(F)F
> 250	COc1cc2nc(N3CCN(c4nc5c([nH]4)CCCCC5)CC3)nc(N)c2cc1OC
182 to 184	C=Cc1cc(O)cc2cc(-c3ccc(O)cc3)oc12
54.5 to 56	N#Cc1cccc2c1OCC2
263 to 267	Cc1cc(C#N)cc2c(=O)oc(-c3cc(Br)nn3-c3ncccc3Cl)nc12
120 to 121	CCOC(=O)c1cccc(CNC(=O)CCCCCNC(=O)OC(C)(C)C)c1O
132 to 135	Nc1cc(Oc2ccc(NC(=O)Nc3ccc(-c4cccnc4)c(C(F)(F)F)c3)cc2)ncn1
144 to 145	OCCNC(=S)NC(=Nc1ccccc1)c1ccccc1

melting point [°C]	SMILES
128 to 130	CCN(CC)C(=O)Oc1cc(CN/C=C2\C(=O)NC(=O)c3ccc(I)cc32)ccc1OC
169 to 171	O=C(NCc1cccnc1)c1ccc2n1Cc1ccccc1N(C(=O)COc1ccc(Cl)cc1)C2
169 to 171	O=C1C(=O)N2c3c(cccc31)OCC2c1ccccc1 (centres undefined)
160	CC(=O)c1cccc(N2CCN(CCC3CCC(NC(=O)CC#N)CC3)CC2)c1 (centres undefined)
122 to 123	COc1cc2ncnc(N3CCN(C(=O)Nc4ccc(CN5CCCCC5)cc4)CC3)c2cc1OC
180	CCCCc1nc(Cl)c(CC(=O)O)c(Cc2ccc(-c3ccccc3-c3nnn[nH]3)cc2)n1
262 to 264	COc1ccc2[nH]c(-c3cccc(C)c3)cc(=O)c2c1
169 to 171	CCNC(=O)Nc1ccc(C(O)(C(F)(F)F)C(F)(F)F)cc1[N+](=O)[O-]
268 to 270	COc1cc(N)c(Cl)cc1C(=O)NC1CCN(CC2CCN(C(C)C(C)=O)CC2)CC1 (centres undefined)
99 to 105	O=C(O)Cc1ccc(CNC(=O)C2Cc3ccccc3N2S(=O)(=O)c2ccc(-c3cccc(C(F)(F)F)c3)cc2)c(F)c1 (centres undefined)
163 to 164	O=C(O)CCC/C=C/c1nn(-c2ccc([N+](=O)[O-])cc2)c2c1CCC2
169 to 171	O=c1c2c(Cl)cc(Cl)cc2n(Cc2ccccc2)c(=O)n1CCc1ccccc1
99	CCCCCCCCC1(C)SC(=O)C=C1OCC(=O)Nc1ccc(OC)cc1 (centres undefined)
129 to 130	OCc1ccc(-c2c3ccccc3nn2Cc2ccco2)cc1
< 250	NNC1(Cl)C=Cc2nc(Cl)cnc2C1 (centres undefined)
154 to 156	CCOC(=O)N1CCN(c2ccc(C3=NNC(=O)CC3C)cc2Cl)CC1 (centres undefined)
80 to 81	CC[C@H](Cn1cnnn1)n1cnc2cc3c(=O)n([C@H](CC)Cn4cnnn4)nnc3cc2c1=O
110 to 112	Cc1cc(-c2c(C)nc3ccc(N4CCNC(C)(C)C4)nn23)ccn1
139 to 140	N#CCCNC(=O)c1cccc(-c2cccc(Oc3cccc(Cl)c3)n2)c1
